Test results as given in ChEMBL document CHEMBL4808209 (J Med Chem, 2021).
The source made the active and inactive calls. No cut-off for these calls is given here.

What was measured:
[1] = molecular target: Delta-type opioid receptor (Homo sapiens, UniProt P41143); assay: Inhibition of human delta opioid receptor at 0.1 to 1 uM; conditions: dose 0.1-1 µM
[2] = molecular target: 5-hydroxytryptamine receptor 3A (Homo sapiens, UniProt P46098); assay: Inhibition of 5HT3 receptor (unknown origin) at 0.1 to 1 uM; conditions: dose 0.1-1 µM
[3] = molecular target: D(4) dopamine receptor (Homo sapiens, UniProt P21917); assay: Inhibition of human dopamine D4.4 receptor at 0.1 to 1 uM; conditions: dose 0.1-1 µM
[4] = Half life in cynomolgus monkey at 2 mg/kg, po or 0.5 mg/kg, iv administered as cassette dose measured after 24 hrs; format: ADME, organism-based, Macaca fascicularis; conditions: in vivo
[5] = molecular target: Beta-1 adrenergic receptor (Homo sapiens, UniProt P08588); assay: Inhibition of human adrenergic beta 1 receptor at 0.1 to 1 uM; conditions: dose 0.1-1 µM
[6] = test system: GABA-A receptor; anion channel; assay: Inhibition of GABA A receptor (unknown origin) at 0.1 to 1 uM; format: protein-complex assay; conditions: human, dose 0.1-1 µM
[7] = molecular target: Adenosine receptor A2a (Homo sapiens, UniProt P29274); assay: Inhibition of human adenosine A2A receptor at 0.1 to 1 uM; conditions: dose 0.1-1 µM
[8] = molecular target: Adenosine receptor A1 (Homo sapiens, UniProt P30542); assay: Inhibition of adenosine A1 receptor (unknown origin) at 0.1 to 1 uM; conditions: dose 0.1-1 µM
[9] = molecular target: CYP2C19 (Homo sapiens, UniProt P33261); assay: Inhibition of CYP2C19 in human liver microsomes using s-mephenytoin as substrate substrate in presence of NADPH by LC-MS/MS analysis; format: ADME; conditions: human, liver microsomes, probe s-mephenytoin
[10] = molecular target: Muscarinic acetylcholine receptor M4 (Homo sapiens, UniProt P08173); assay: Inhibition of human muscarinic M4 receptor at 0.1 to 1 uM; conditions: dose 0.1-1 µM
[11] = molecular target: 5-hydroxytryptamine receptor 2A (Homo sapiens, UniProt P28223); assay: Inhibition of 5HT2A receptor (unknown origin) at 0.1 to 1 uM; conditions: dose 0.1-1 µM
[12] = test system: Neuronal acetylcholine receptor; assay: Inhibition of neuronal nicotinic receptor (unknown origin) at 0.1 to 1 uM; format: protein-complex assay; conditions: human, dose 0.1-1 µM
[13] = molecular target: 5-hydroxytryptamine receptor 1D (Homo sapiens, UniProt P28221); assay: Inhibition of 5HT1D receptor (unknown origin) at 0.1 to 1 uM; conditions: dose 0.1-1 µM
[14] = test system: Glutamate [NMDA] receptor; assay: Inhibition of NMDA receptor (unknown origin) at 0.1 to 1 uM; format: protein-complex assay; conditions: human, dose 0.1-1 µM
[15] = test system: KATO III; assay: Antitumor activity against human KATO III stomach cancer cell line xenografted in SCID mouse assessed as tumor growth inhibition at 0.3 mg/kg, po administered once daily for 10 days; format: functional, organism-based; conditions: time 10.0 day
[16] = molecular target: Acetylcholinesterase (Homo sapiens, UniProt P22303); assay: Inhibition of acetylcholinesterase (unknown origin) at 0.1 to 1 uM; conditions: dose 0.1-1 µM
[17] = molecular target: cGMP-specific 3',5'-cyclic phosphodiesterase (Homo sapiens, UniProt O76074); assay: Inhibition of human PDE5A1 at 0.1 to 1 uM; conditions: dose 0.1-1 µM
[18] = Inhibition of Glutamate kainate site receptor (unknown origin) at 0.1 to 1 uM; format: ADME; conditions: human, dose 0.1-1 µM
[19] = molecular target: Endothelin-1 receptor (Homo sapiens, UniProt P25101); assay: Inhibition of human ETA receptor at 0.1 to 1 uM; conditions: dose 0.1-1 µM
[20] = molecular target: Type-1 angiotensin II receptor (Homo sapiens, UniProt P30556); assay: Inhibition of human angiotensin 2, AT1 at 0.1 to 1 uM; conditions: dose 0.1-1 µM
[21] = Clearance in Sprague-Dawley rat at 2 mg/kg, po or 1 mg/kg, iv administered as cassette dose measured after 24 hrs relative to hepatic blood flow; format: ADME, organism-based; conditions: in vivo
[22] = molecular target: 5-hydroxytryptamine receptor 2C (Homo sapiens, UniProt P28335); assay: Inhibition of 5HT2C receptor (unknown origin) at 0.1 to 1 uM; conditions: dose 0.1-1 µM
[23] = molecular target: Histamine H2 receptor (Homo sapiens, UniProt P25021); assay: Inhibition of histamine H2 receptor (unknown origin) at 0.1 to 1 uM; conditions: dose 0.1-1 µM
[24] = molecular target: Muscarinic acetylcholine receptor M2 (Homo sapiens, UniProt P08172); assay: Inhibition of human muscarinic M2 receptor at 0.1 to 1 uM; conditions: dose 0.1-1 µM
[25] = molecular target: Thromboxane A2 receptor (Homo sapiens, UniProt P21731); assay: Inhibition of human thromboxane A2 at 0.1 to 1 uM; conditions: dose 0.1-1 µM
[26] = molecular target: B2 bradykinin receptor (Homo sapiens, UniProt P30411); assay: Inhibition of BK2 (unknown origin) at 0.1 to 1 uM; conditions: dose 0.1-1 µM
[27] = molecular target: CYP1A2 (Homo sapiens, UniProt P05177); assay: Inhibition of CYP1A2 in human liver microsomes using 7-ethoxyresorufin as substrate substrate in presence of NADPH by LC-MS/MS analysis; format: ADME; conditions: human, liver microsomes, probe 7-ethoxyresorufin
[28] = molecular target: Sodium-dependent dopamine transporter (Homo sapiens, UniProt Q01959); assay: Inhibition of dopamine transporter (unknown origin) at 0.1 to 1 uM; format: ADME; conditions: dose 0.1-1 µM
[29] = molecular target: CYP2C8 (Homo sapiens, UniProt P10632); assay: Inhibition of CYP2C8 in human liver microsomes using amodiaquine as substrate substrate in presence of NADPH by LC-MS/MS analysis; format: ADME; conditions: probe amodiaquine
[30] = Inhibition of human PKA at 0.1 to 1 uM; conditions: dose 0.1-1 µM
[31] = molecular target: Sodium-dependent serotonin transporter (Homo sapiens, UniProt P31645); assay: Inhibition of serotonin transporter (unknown origin) at 0.1 to 1 uM; format: ADME; conditions: dose 0.1-1 µM
[32] = molecular target: Protein kinase C alpha type (Homo sapiens, UniProt P17252); assay: Inhibition of human PKCa at 0.1 to 1 uM; conditions: dose 0.1-1 µM
[33] = molecular target: 5-hydroxytryptamine receptor 4 (Homo sapiens, UniProt Q13639); assay: Inhibition of 5HT4 receptor (unknown origin) at 0.1 to 1 uM; conditions: dose 0.1-1 µM
[34] = test system: Glutamate [NMDA] receptor; assay: Inhibition of Glutamate receptor ionotropic NMDA glycine,[…] site (unknown origin) at 0.1 to 1 uM; format: protein-complex assay; conditions: human, dose 0.1-1 µM
[35] = test system: KATO III; assay: Antitumor activity against human KATO III stomach cancer cell line xenografted in po dosed SCID mouse assessed as tumor growth inhibition administered once daily for 10 days; format: functional, organism-based; conditions: dose 0.03-1 mg/kg, time 10.0 day
[36] = molecular target: Sigma non-opioid intracellular receptor 1 (Homo sapiens, UniProt Q99720); assay: Inhibition of sigma 1 receptor (unknown origin) at 0.1 to 1 uM; conditions: dose 0.1-1 µM
[37] = molecular target: Alpha-2C adrenergic receptor (Homo sapiens, UniProt P18825); assay: Inhibition of human adrenergic alpha 2C receptor at 0.1 to 1 uM; conditions: dose 0.1-1 µM
[38] = molecular target: Histamine H3 receptor (Homo sapiens, UniProt Q9Y5N1); assay: Inhibition of histamine H3 receptor (unknown origin) at 0.1 to 1 uM; conditions: dose 0.1-1 µM
[39] = test system: Glutamate [NMDA] receptor; assay: Inhibition of Glutamate receptor (unknown origin) at 0.1 to 1 uM; format: protein-complex assay; conditions: human, dose 0.1-1 µM
[40] = molecular target: Substance-P receptor (Homo sapiens, UniProt P25103); assay: Inhibition of NK-1 (unknown origin) at 0.1 to 1 uM; conditions: dose 0.1-1 µM
[41] = molecular target: CYP2D6 (Homo sapiens, UniProt P10635); assay: Inhibition of CYP2D6 in human liver microsomes using bufuralol as substrate substrate in presence of NADPH by LC-MS/MS analysis; format: ADME; conditions: human, liver microsomes, probe bufuralol
[42] = Oral bioavailability in Beagle dog at 2 mg/kg measured after 24 hrs; format: ADME, organism-based, Canis lupus familiaris; conditions: in vivo

Histamine H3 receptor, sequence (Q9Y5N1 whole entry): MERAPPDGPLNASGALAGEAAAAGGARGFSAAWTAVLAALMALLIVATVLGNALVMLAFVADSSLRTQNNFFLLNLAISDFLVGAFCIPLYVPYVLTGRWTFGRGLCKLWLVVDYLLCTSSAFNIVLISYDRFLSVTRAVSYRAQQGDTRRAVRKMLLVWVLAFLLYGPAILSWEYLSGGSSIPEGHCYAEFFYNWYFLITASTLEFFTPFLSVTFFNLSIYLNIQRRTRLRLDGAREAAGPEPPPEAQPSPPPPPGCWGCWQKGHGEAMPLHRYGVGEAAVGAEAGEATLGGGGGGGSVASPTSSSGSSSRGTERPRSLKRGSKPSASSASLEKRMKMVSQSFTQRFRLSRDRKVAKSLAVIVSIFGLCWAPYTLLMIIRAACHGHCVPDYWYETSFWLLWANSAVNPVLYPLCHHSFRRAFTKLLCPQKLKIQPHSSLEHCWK
5-hydroxytryptamine receptor 3A, sequence (P46098 whole entry): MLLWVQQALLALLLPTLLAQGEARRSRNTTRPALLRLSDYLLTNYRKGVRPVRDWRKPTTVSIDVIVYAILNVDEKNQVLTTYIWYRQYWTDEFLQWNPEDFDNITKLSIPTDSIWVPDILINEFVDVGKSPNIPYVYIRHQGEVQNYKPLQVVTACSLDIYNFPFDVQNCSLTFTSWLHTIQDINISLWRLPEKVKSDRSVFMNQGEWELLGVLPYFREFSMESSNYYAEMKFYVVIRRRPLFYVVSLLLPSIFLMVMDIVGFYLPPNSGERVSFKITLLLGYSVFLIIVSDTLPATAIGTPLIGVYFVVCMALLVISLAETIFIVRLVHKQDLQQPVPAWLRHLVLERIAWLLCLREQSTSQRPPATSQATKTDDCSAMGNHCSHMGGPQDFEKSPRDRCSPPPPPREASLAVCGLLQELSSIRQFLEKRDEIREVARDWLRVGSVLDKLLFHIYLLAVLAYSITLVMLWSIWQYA
Delta-type opioid receptor, sequence (P41143 whole entry): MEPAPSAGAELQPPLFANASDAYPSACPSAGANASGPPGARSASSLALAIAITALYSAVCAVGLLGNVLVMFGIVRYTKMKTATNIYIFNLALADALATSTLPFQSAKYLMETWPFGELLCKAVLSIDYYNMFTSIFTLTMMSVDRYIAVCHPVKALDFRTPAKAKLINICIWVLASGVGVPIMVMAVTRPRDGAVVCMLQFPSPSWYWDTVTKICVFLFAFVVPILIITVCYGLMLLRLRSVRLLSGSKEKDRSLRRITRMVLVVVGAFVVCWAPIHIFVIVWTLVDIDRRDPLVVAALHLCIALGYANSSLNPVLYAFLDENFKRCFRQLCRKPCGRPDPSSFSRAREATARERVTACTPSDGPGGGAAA
5-hydroxytryptamine receptor 2C, sequence (P28335 whole entry): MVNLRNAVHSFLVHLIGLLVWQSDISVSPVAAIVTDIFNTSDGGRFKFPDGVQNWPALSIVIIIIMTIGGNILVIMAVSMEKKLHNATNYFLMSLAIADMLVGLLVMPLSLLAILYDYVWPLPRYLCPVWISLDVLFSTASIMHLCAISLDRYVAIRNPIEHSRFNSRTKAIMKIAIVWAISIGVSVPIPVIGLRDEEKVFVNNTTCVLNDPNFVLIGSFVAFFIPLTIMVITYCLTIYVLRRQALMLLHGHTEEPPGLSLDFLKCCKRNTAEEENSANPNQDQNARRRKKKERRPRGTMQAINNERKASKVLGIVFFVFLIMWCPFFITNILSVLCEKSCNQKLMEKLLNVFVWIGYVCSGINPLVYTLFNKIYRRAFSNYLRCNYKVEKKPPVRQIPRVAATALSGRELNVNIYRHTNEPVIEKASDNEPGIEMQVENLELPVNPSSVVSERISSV
5-hydroxytryptamine receptor 2A, sequence (P28223 whole entry): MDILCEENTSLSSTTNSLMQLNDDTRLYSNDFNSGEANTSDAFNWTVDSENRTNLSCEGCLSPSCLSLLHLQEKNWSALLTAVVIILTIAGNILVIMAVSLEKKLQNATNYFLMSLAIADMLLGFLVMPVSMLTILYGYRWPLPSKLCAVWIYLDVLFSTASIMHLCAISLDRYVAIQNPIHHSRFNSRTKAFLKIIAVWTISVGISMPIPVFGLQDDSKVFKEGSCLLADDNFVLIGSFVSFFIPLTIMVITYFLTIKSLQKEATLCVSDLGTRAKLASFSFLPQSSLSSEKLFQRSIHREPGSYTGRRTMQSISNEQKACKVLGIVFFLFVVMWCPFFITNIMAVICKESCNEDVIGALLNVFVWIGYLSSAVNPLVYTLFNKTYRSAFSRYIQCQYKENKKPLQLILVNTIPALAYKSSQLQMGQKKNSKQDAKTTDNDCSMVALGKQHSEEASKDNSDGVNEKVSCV
D(4) dopamine receptor, sequence (P21917 whole entry): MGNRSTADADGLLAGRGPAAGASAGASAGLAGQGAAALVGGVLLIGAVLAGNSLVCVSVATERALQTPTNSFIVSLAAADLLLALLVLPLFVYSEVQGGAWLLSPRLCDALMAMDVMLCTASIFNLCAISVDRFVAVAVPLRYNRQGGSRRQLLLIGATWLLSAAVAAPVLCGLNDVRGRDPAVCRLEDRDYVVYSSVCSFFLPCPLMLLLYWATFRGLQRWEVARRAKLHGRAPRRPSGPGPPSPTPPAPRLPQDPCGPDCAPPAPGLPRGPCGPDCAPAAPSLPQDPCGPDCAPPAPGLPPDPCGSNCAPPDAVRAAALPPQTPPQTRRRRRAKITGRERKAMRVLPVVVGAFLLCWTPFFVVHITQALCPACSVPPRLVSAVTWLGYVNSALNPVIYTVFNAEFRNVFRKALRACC
Sodium-dependent serotonin transporter, sequence (P31645 whole entry): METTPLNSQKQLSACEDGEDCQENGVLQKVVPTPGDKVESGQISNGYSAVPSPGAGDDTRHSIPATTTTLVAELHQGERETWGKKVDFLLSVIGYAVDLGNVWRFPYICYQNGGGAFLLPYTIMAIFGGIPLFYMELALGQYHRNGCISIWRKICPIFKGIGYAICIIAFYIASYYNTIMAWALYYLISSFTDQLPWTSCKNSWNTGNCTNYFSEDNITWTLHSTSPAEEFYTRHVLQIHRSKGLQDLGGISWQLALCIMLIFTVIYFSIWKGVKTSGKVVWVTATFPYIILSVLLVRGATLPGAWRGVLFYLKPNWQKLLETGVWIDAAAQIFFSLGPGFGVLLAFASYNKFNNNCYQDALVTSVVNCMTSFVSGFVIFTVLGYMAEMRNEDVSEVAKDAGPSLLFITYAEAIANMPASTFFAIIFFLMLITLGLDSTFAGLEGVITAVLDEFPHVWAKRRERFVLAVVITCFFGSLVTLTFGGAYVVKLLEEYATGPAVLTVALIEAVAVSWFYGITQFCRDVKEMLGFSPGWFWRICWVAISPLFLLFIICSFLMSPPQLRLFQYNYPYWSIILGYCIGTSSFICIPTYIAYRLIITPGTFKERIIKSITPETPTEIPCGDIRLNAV
5-hydroxytryptamine receptor 1D, sequence (P28221 whole entry): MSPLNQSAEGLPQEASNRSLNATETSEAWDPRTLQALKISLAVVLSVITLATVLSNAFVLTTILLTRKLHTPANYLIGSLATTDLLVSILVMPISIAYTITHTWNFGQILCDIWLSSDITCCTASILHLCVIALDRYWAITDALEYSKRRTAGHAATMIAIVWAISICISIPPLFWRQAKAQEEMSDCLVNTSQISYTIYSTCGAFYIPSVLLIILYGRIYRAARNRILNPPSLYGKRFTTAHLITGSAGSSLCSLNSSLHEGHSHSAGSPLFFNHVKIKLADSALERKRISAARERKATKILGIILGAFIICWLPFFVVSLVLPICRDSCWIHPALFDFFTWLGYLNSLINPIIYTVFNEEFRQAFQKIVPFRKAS
CYP2C8, sequence (P10632 whole entry): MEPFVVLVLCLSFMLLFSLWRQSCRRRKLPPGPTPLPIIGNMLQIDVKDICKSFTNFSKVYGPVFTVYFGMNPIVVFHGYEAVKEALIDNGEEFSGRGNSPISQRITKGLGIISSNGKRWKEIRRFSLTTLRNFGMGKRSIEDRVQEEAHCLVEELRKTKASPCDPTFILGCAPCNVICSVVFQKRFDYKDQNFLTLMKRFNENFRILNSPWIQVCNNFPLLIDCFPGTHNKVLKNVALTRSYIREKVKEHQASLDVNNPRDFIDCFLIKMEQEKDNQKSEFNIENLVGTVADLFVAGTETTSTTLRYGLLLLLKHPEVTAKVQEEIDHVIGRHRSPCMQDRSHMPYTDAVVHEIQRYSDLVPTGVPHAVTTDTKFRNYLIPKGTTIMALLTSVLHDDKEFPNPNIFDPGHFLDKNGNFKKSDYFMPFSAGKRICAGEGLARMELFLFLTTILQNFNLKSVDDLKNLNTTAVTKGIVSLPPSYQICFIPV
CYP1A2, sequence (P05177 whole entry): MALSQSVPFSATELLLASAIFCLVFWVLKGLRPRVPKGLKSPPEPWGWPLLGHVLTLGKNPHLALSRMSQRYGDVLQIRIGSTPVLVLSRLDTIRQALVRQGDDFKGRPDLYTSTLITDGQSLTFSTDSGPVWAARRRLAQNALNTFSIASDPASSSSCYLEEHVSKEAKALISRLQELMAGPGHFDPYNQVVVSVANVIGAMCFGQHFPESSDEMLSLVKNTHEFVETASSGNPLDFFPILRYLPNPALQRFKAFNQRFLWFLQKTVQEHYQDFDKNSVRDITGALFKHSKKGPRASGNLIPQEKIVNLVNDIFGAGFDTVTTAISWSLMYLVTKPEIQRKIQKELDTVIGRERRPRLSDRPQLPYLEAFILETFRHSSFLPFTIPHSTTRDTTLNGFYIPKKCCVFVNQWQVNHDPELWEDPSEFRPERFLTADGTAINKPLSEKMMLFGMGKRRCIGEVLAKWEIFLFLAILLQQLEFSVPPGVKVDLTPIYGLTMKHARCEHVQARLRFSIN
Sigma non-opioid intracellular receptor 1, sequence (Q99720 whole entry): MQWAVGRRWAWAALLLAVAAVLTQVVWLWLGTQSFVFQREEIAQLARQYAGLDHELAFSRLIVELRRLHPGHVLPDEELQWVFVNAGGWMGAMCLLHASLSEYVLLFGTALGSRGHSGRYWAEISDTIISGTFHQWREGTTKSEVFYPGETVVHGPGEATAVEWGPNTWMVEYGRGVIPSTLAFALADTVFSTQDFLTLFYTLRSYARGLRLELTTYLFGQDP

**Q.** For `CCN1C(=O)N(c2c(F)c(OC)cc(OC)c2F)Cc2cnc3[nH]c(CN4CCOCC4)cc3c21` [PEMIGATINIB], which “inhibition (INH)” value [1] is on record?
**A.** The value was “Not Active”.

**Q.** And the “inhibition (INH)” value [2]?
**A.** The value was “Not Active”.

**Q.** And the “inhibition (INH)” value [3]?
**A.** Its value is “Not Active”.

**Q.** And the half-life [4]?
**A.** The half-life was 10 h.

**Q.** And the “inhibition (INH)” value [5]?
**A.** The value was “Not Active”.

**Q.** What about the “inhibition (INH)” value [6] of the same molecule?
**A.** Its value is “Not Active”.

**Q.** What about the “inhibition (INH)” value [7] of the same molecule?
**A.** The value was “Not Active”.

**Q.** And the “inhibition (INH)” value [8]?
**A.** Its value is “Not Active”.

**Q.** What about the IC50 [9] of the same molecule?
**A.** The IC50 was > 25 µM.

**Q.** And the “inhibition (INH)” value [10]?
**A.** The value was “Not Active”.

**Q.** What about the “inhibition (INH)” value [11] of the same molecule?
**A.** Its value is “Not Active”.

**Q.** What about the “inhibition (INH)” value [12] of the same molecule?
**A.** The value was “Not Active”.

**Q.** What about the “inhibition (INH)” value [13] of the same molecule?
**A.** Its value is “Not Active”.

**Q.** And the “inhibition (INH)” value [14]?
**A.** Its value is “Not Active”.

**Q.** And the TGI [15]?
**A.** Its TGI is “Active”.

**Q.** What about the “inhibition (INH)” value [16] of the same molecule?
**A.** The value was “Not Active”.

**Q.** And the “inhibition (INH)” value [17]?
**A.** Its value is “Not Active”.

**Q.** What about the “inhibition (INH)” value [18] of the same molecule?
**A.** Its value is “Not Active”.

**Q.** And the “inhibition (INH)” value [19]?
**A.** The value was “Not Active”.

**Q.** What about the “inhibition (INH)” value [20] of the same molecule?
**A.** The value was “Not Active”.

**Q.** What about the CL [21] of the same molecule?
**A.** Its CL is 31%.

**Q.** And the “inhibition (INH)” value [22]?
**A.** The value was “Not Active”.

**Q.** And the “inhibition (INH)” value [23]?
**A.** The value was “Not Active”.

**Q.** And the “inhibition (INH)” value [24]?
**A.** Its value is “Not Active”.

**Q.** And the “inhibition (INH)” value [25]?
**A.** Its value is “Not Active”.

**Q.** What about the “inhibition (INH)” value [26] of the same molecule?
**A.** The value was “Not Active”.

**Q.** And the IC50 [27]?
**A.** Its IC50 is > 25 µM.

**Q.** What about the “inhibition (INH)” value [28] of the same molecule?
**A.** The value was “Not Active”.

**Q.** And the IC50 [29]?
**A.** The IC50 was > 25 µM.

**Q.** And the “inhibition (INH)” value [30]?
**A.** The value was “Not Active”.

**Q.** And the “inhibition (INH)” value [31]?
**A.** The value was “Not Active”.

**Q.** And the “inhibition (INH)” value [32]?
**A.** Its value is “Not Active”.

**Q.** What about the “inhibition (INH)” value [33] of the same molecule?
**A.** The value was “Not Active”.

**Q.** What about the “inhibition (INH)” value [34] of the same molecule?
**A.** The value was “Not Active”.

**Q.** What about the TGI [35] of the same molecule?
**A.** The TGI was “Dose-Dependent Effect”.

**Q.** What about the “inhibition (INH)” value [36] of the same molecule?
**A.** Its value is “Not Active”.

**Q.** What about the “inhibition (INH)” value [37] of the same molecule?
**A.** Its value is “Not Active”.

**Q.** What about the “inhibition (INH)” value [38] of the same molecule?
**A.** The value was “Not Active”.

**Q.** And the “inhibition (INH)” value [39]?
**A.** The value was “Not Active”.

**Q.** And the “inhibition (INH)” value [40]?
**A.** Its value is “Not Active”.

**Q.** What about the IC50 [41] of the same molecule?
**A.** The IC50 was > 25 µM.

**Q.** What about the bioavailability [42] of the same molecule?
**A.** The bioavailability was 98%.
